Test results published in ChEMBL document CHEMBL4390661, “Pyridazinone-substituted benzenesulfonamides display potent inhibition of membrane-bound human carbonic anhydrase IX and promising antiproliferative activity against cancer cell lines” (Eur J Med Chem, 2019).
The source made the active and inactive calls. No cut-off for these calls is given here.

Experiments:
Carbonic anhydrase 1 = Carbonic anhydrase 1 (Homo sapiens, UniProt P00915); assay: Inhibition of human cytosolic CA 1 preincubated for 15 mins by phenol red dye-based stopped-flow CO2 hydration assay
Carbonic anhydrase 2 = Carbonic anhydrase 2 (Homo sapiens, UniProt P00918); assay: Inhibition of human cytosolic CA 2 preincubated for 15 mins by phenol red dye-based stopped-flow CO2 hydration assay
Carbonic anhydrase 9 = Carbonic anhydrase 9 (Homo sapiens, UniProt Q16790); assay: Inhibition of membrane bound human CA 9 preincubated for 15 mins by phenol red dye-based stopped-flow CO2 hydration assay
Carbonic anhydrase 12 [1] = target: T1, Carbonic anhydrase 12 (Homo sapiens, UniProt O43570); assay: Inhibition of membrane bound human CA 12 preincubated for 15 mins by phenol red dye-based stopped-flow CO2 hydration assay
Carbonic anhydrase 12 [2] = target: T1, Carbonic anhydrase 12
Description: Inhibition of human CA 12 catalytic domain

PANC-1 [3] = assay: Cytotoxicity against human PANC1 cells assessed as reduction in cell viability incubated for 48 hrs under hypoxia condition by MTT assay relative to human ARPE19 cells; assay type: functional
PANC-1 [4] = assay: Cytotoxicity against human PANC1 cells assessed as reduction in cell viability incubated for 48 hrs under hypoxia condition by MTT assay; assay type: functional, cell-based
PANC-1 [5] = assay: Cytotoxicity against human PANC1 cells assessed as reduction in cell viability incubated for 48 hrs under normoxic condition by MTT assay relative to control; assay type: functional, cell-based
PANC-1 [6] = assay: Cytotoxicity against human PANC1 cells assessed as reduction in cell viability incubated for 48 hrs under hypoxia condition by MTT assay relative to control; assay type: functional, cell-based
ARPE-19 [7] = assay: Cytotoxicity against human ARPE19 cells assessed as reduction in cell viability incubated for 48 hrs under hypoxia condition by MTT assay relative to control; assay type: cell-based; conditions: arpe-19, 48 h
SK-MEL-2 [8] = assay: Cytotoxicity against human SK-MEL-2 cells assessed as reduction in cell viability incubated for 48 hrs under normoxic condition by MTT assay relative to control; assay type: functional, cell-based
ARPE-19 [9] = assay: Cytotoxicity against human ARPE19 cells assessed as reduction in cell viability incubated for 48 hrs under normoxic condition by MTT assay relative to control; assay type: cell-based; conditions: arpe-19, 48 h
SK-MEL-2 [10] = assay: Cytotoxicity against human SK-MEL-2 cells assessed as reduction in cell viability incubated for 48 hrs under hypoxia condition by MTT assay relative to control; assay type: functional, cell-based
SK-MEL-2 [11] = assay: Cytotoxicity against human SK-MEL-2 cells assessed as reduction in cell viability at 300 uM incubated for 48 hrs under normoxic condition by MTT assay relative to control; assay type: functional, cell-based

T1 sequence (O43570 whole entry): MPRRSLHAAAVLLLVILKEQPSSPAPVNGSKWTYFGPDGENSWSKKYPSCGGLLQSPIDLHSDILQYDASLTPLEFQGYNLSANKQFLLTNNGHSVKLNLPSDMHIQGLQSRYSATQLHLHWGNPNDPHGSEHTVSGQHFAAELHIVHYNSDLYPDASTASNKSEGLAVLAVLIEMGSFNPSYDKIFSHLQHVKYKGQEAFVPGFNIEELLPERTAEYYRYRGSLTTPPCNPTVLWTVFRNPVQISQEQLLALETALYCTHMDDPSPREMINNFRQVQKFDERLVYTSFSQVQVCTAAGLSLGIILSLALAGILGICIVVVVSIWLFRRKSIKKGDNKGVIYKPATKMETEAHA
Carbonic anhydrase 1, sequence (P00915 whole entry): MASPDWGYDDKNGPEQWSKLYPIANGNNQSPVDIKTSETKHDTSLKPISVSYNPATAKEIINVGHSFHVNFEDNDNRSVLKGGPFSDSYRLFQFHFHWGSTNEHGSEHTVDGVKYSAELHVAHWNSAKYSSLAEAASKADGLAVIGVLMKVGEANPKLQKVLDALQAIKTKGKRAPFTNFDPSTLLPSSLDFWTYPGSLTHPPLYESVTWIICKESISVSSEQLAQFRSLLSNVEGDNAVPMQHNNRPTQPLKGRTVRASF

| Compound | Ki (Carbonic anhydrase 1) [nM] | Ki (Carbonic anhydrase 2) [nM] | Ki (Carbonic anhydrase 9) [nM] | Ki (Carbonic anhydrase 12 [1]) [nM] | Ki (Carbonic anhydrase 12 [2]) [nM] | Activity (PANC-1 [3]) [%] | Activity (PANC-1 [4]) | Activity (PANC-1 [5]) | Activity (PANC-1 [6]) | Activity (ARPE-19 [7]) | Activity (SK-MEL-2 [8]) | Activity (ARPE-19 [9]) | Activity (SK-MEL-2 [10]) | Activity (SK-MEL-2 [11]) |
| --- | --- | --- | --- | --- | --- | --- | --- | --- | --- | --- | --- | --- | --- | --- |
| NS(=O)(=O)c1ccc(-n2nc(-c3ccncc3)ccc2=O)cc1 | 227 | 4.8 | 50.8 | 8.7 |  |  |  |  |  |  |  |  |  |  |
| CC1=NN(c2ccc(S(N)(=O)=O)cc2)C(=O)CC1 | 88.2 | 0.68 | 32.8 | 31 |  | >30 |  |  |  |  |  |  |  |  |
| NS(=O)(=O)c1ccc(N2N=C(c3ccc(Cl)c(Cl)c3)CCC2=O)cc1 | 5960 | 74.1 | 6 | 67.1 |  |  |  |  |  |  |  |  |  |  |
| NS(=O)(=O)c1ccc(-n2ncc(NCCCN3CCOCC3)c(Cl)c2=O)cc1 | 481 | 0.67 | 2.8 | 10.1 |  |  |  |  |  |  |  |  |  |  |
| NS(=O)(=O)c1ccc(-n2ncc(N3CCCCCC3)c(Cl)c2=O)cc1 | 97.4 | 0.06 | 0.49 | 8.4 |  | >30 |  |  |  | Dose-dependent effect |  | Dose-dependent effect |  |  |
| Cc1cc(-c2cccnc2)nn(-c2ccc(S(N)(=O)=O)cc2)c1=O | 101 | 2.9 | 2.3 | 8.8 |  |  |  |  |  |  |  |  |  |  |
| NS(=O)(=O)c1ccc(-n2ncc(N3CCOCC3)c(Cl)c2=O)cc1 | 89 | 0.07 | 0.58 | 36 |  | >30 |  |  |  |  | Dose-dependent effect | Non-Toxic | Dose-dependent effect |  |
| NS(=O)(=O)c1ccc(-n2ncccc2=O)cc1 | 320 | 8.2 | 9 | 81.2 |  | >30 | inactive | inactive | inactive | Non-Toxic | inactive | Non-Toxic | inactive |  |
| COc1ccc2cnn(-c3ccc(S(N)(=O)=O)cc3)c(=O)c2c1OC | 90.7 | 3.5 | 8.9 | 66.4 |  |  |  |  |  |  |  |  |  |  |
| NS(=O)(=O)c1ccc(-n2nc(-c3ccccc3O)ccc2=O)cc1 | 84.1 | 0.62 | 0.46 | 9.3 |  |  |  |  |  |  |  |  |  |  |
| NS(=O)(=O)c1ccc(-n2ncc(N3CCc4ccccc4C3)c(Cl)c2=O)cc1 | 738 | 60.5 | 89.6 | 85.5 |  |  |  |  |  |  |  |  |  |  |
| NS(=O)(=O)c1ccc(-n2ncc(NCc3ccccc3)c(Cl)c2=O)cc1 | 95.1 | 0.09 | 0.67 | 9.4 |  |  |  |  |  |  |  |  |  |  |
| COc1ccc(C2=NN(c3ccc(S(N)(=O)=O)cc3)C(=O)CC2)cc1 | 92.7 | 0.08 | 2.4 | 9.9 |  | >30 |  |  |  | Dose-dependent effect |  | Dose-dependent effect |  |  |
| NS(=O)(=O)c1ccc(-n2ncc(Cl)c(Cl)c2=O)cc1 | 482 | 2.3 | 8.7 | 9.9 |  | >30 |  |  |  |  |  |  |  |  |
| NS(=O)(=O)c1ccc(-n2ncc(N3CCN(c4ccccn4)CC3)c(Cl)c2=O)cc1 | 676 | 46.6 | 89.5 | 105 |  | >30 |  |  |  |  |  |  |  |  |
| NS(=O)(=O)c1ccc(-n2ncc(N3CCCCCC3)cc2=O)cc1 | 88.2 | 0.08 | 0.56 | 6.3 |  |  |  |  |  |  |  |  |  |  |

Second part, led by results:

| Ki (Carbonic anhydrase 1) [nM] | Ki (Carbonic anhydrase 2) [nM] | Ki (Carbonic anhydrase 9) [nM] | Ki (Carbonic anhydrase 12 [1]) [nM] | Ki (Carbonic anhydrase 12 [2]) [nM] | Compound | Activity (PANC-1 [3]) [%] | Activity (PANC-1 [4]) | Activity (PANC-1 [5]) | Activity (PANC-1 [6]) | Activity (ARPE-19 [7]) | Activity (SK-MEL-2 [8]) | Activity (ARPE-19 [9]) | Activity (SK-MEL-2 [10]) | Activity (SK-MEL-2 [11]) |
| --- | --- | --- | --- | --- | --- | --- | --- | --- | --- | --- | --- | --- | --- | --- |
| 187 | 0.26 | 4.8 | 22.5 |  | NS(=O)(=O)c1ccc(N2N=C(c3ccccc3)CCC2=O)cc1 |  |  |  |  |  |  |  |  |  |
| 99 | 1.4 | 28.2 | 63.7 |  | NS(=O)(=O)c1ccc(-n2nc(-c3ccc4c(c3)OCO4)ccc2=O)cc1 |  |  |  |  |  |  |  |  |  |
|  |  |  |  | 3 | NS(=O)(=O)c1ccc(S(=O)(=O)Nc2cccc3c(Cl)c[nH]c23)cc1 |  |  |  |  |  |  |  |  |  |
| 485 | 0.29 | 0.7 | 7.2 |  | CCN1CCN(c2cnn(-c3ccc(S(N)(=O)=O)cc3)c(=O)c2Cl)CC1 | >30 | inactive | inactive | inactive | Non-Toxic | inactive | Non-Toxic | inactive |  |
| 292 | 0.55 | 2.1 | 9.8 |  | NS(=O)(=O)c1ccc(-n2ncc(N3CCOCC3)cc2=O)cc1 |  |  |  |  |  |  |  |  |  |
| 89.7 | 0.03 | 0.24 | 9 |  | Cc1nn(-c2ccc(S(N)(=O)=O)cc2)c(=O)c2ccccc12 |  |  |  |  |  |  |  |  |  |
| 72.3 | 0.23 | 0.32 | 50.6 |  | NS(=O)(=O)c1ccc(-n2ncc3ccccc3c2=O)cc1 |  |  |  |  |  |  |  |  |  |
| 311 | 4.3 | 41.3 | 25.3 |  | CCN1CCN(c2cnn(-c3ccc(S(N)(=O)=O)cc3)c(=O)c2)CC1 |  |  |  |  |  |  |  |  | Active |
